Where two headings read alike, the source gives them in different places.
How the values were obtained:
[1] = system: Key Broadleaf Weed and Crop Species; experiment: Post-emergent Test II herbicidal activity (Table 15); type: in vivo; conditions: post-emergence, 336 h, 14 d; for pest or weed control at 35 g/ha: 35 g ai/ha; for pest or weed control at 70 g/ha: 70 g ai/ha; for pest or weed control at 140 g/ha: 140 g ai/ha
Summary of the method: (§1)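 Visual injury rating (0 = none, 100% = complete kill) made 14 d after treatment, relative to untreated plants. Compounds in an acetone/DMSO/aqueous crop-oil/surfactant spray, at top rate and serial 1/2×-1/16× rates, were applied at 187 L/ha overhead to first-second true leaf plants raised 7-21 d in greenhouse.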

[2] = system: Key Grass and Sedge Weeds as well as Grass Crops; experiment: Post-emergent Test II herbicidal activity (Table 16); type: in vivo; conditions: post-emergence, 336 h, 14 d; for pest or weed control at 35 g/ha: 35 g ai/ha; for pest or weed control at 70 g/ha: 70 g ai/ha; for pest or weed control at 140 g/ha: 140 g ai/ha
Summary of the method: as §1

[3] = Abutilon theophrasti, velvetleaf (Abutilon theophrasti), read-out: Visual Growth Reduction (%) 14 Days After Application, ABUTH
[4] = Amaranthus retroflexus, redroot pigweed (Amaranthus retroflexus), read-out: Visual Growth Reduction (%) 14 Days After Application, AMARE
[5] = Brassica napus, oilseed rape, canola (Brassica napus), read-out: Visual Growth Reduction (%) 14 Days After Application, BRSNN
[6] = Chenopodium album, lambsquarters (Chenopodium album), read-out: Visual Growth Reduction (%) 14 Days After Application, CHEAL
[7] = Euphorbia heterophylla, wild poinsettia (Euphorbia heterophylla), read-out: Visual Growth Reduction (%) 14 Days After Application, EPHHL
[8] = Helianthus annuus, sunflower (Helianthus annuus), read-out: Visual Growth Reduction (%) 14 Days After Application, HELAN
[9] = Cyperus esculentus, yellow nutsedge (Cyperus esculentus), read-out: Visual Growth Reduction (%) 14 Days After Application, CYPES
[10] = Echinochloa crus-galli, barnyardgrass (Echinochloa crus-galli), read-out: Visual Growth Reduction (%) 14 Days After Application, ECHCG
[11] = Oryza sativa, rice (Oryza sativa), read-out: Visual Growth Reduction (%) 14 Days After Application, ORYSA
[12] = Setaria faberi, giant foxtail (Setaria faberi), read-out: Visual Growth Reduction (%) 14 Days After Application, SETFA
[13] = Triticum aestivum, wheat, spring (Triticum aestivum), read-out: Visual Growth Reduction (%) 14 Days After Application, TRZAS
[14] = Zea mays, maize, corn (Zea mays), read-out: Visual Growth Reduction (%) 14 Days After Application, ZEAMX

| SMILES | pest or weed control at 35 g/ha [1, 3] | pest or weed control at 70 g/ha [1, 3] | pest or weed control at 140 g/ha [1, 3] | pest or weed control at 70 g/ha [1, 4] | pest or weed control at 140 g/ha [1, 4] | pest or weed control at 35 g/ha [1, 5] | pest or weed control at 70 g/ha [1, 5] | pest or weed control at 140 g/ha [1, 5] | pest or weed control at 35 g/ha [1, 6] | pest or weed control at 70 g/ha [1, 6] | pest or weed control at 140 g/ha [1, 6] | pest or weed control at 35 g/ha [1, 7] | pest or weed control at 70 g/ha [1, 7] | pest or weed control at 140 g/ha [1, 7] | pest or weed control at 35 g/ha [1, 8] | pest or weed control at 70 g/ha [1, 8] | pest or weed control at 140 g/ha [1, 8] | pest or weed control at 35 g/ha [2, 9] | pest or weed control at 70 g/ha [2, 9] | pest or weed control at 140 g/ha [2, 9] | further results |
| --- | --- | --- | --- | --- | --- | --- | --- | --- | --- | --- | --- | --- | --- | --- | --- | --- | --- | --- | --- | --- | --- |
| Cn1ccc2cc(-c3nc(C(=O)O)c(Cl)c(N)c3F)ccc21 [Compound 1.01] | 0 to 29% | 0 to 29% | 30 to 44% | 0 to 29% | 45 to 59% | 0 to 29% | 0 to 29% | 0 to 29% | 0 to 29% | 0 to 29% | 0 to 29% | 95 to 100% | 95 to 100% | 95 to 100% | 0 to 29% | 75 to 84% | 75 to 84% | 0 to 29% | 0 to 29% | 0 to 29% | melting point: 166 to 168 °C; pest or weed control at 35 g/ha [2, 10]: 0 to 29%; pest or weed control at 140 g/ha [2, 10]: 75 to 84%; pest or weed control at 35 g/ha [2, 11]: 0 to 29%; pest or weed control at 70 g/ha [2, 11]: 0 to 29%; pest or weed control at 140 g/ha [2, 11]: 0 to 29%; pest or weed control at 35 g/ha [2, 12]: 0 to 29%; pest or weed control at 70 g/ha [2, 12]: 0 to 29%; pest or weed control at 140 g/ha [2, 12]: 0 to 29%; pest or weed control at 35 g/ha [2, 13]: 0 to 29%; pest or weed control at 70 g/ha [2, 13]: 0 to 29%; pest or weed control at 140 g/ha [2, 13]: 0 to 29%; pest or weed control at 35 g/ha [2, 14]: 0 to 29%; pest or weed control at 70 g/ha [2, 14]: 95 to 100%; pest or weed control at 140 g/ha [2, 14]: 85 to 94% |
| COC(=O)c1nc(-c2ccc3cc[nH]c3c2F)nc(N)c1OC [Compound 1.34] | 0 to 29% | 0 to 29% | 0 to 29% | 0 to 29% | 30 to 44% | 75 to 84% | 85 to 94% | 95 to 100% | 0 to 29% | 45 to 59% | 60 to 74% | 0 to 29% | 0 to 29% | 60 to 74% | 85 to 94% | 95 to 100% | 95 to 100% | 0 to 29% | 0 to 29% | 0 to 29% | pest or weed control at 35 g/ha [1, 4]: 0 to 29%; pest or weed control at 35 g/ha [2, 10]: 0 to 29%; pest or weed control at 70 g/ha [2, 10]: 0 to 29%; pest or weed control at 140 g/ha [2, 10]: 0 to 29%; pest or weed control at 35 g/ha [2, 11]: 0 to 29%; pest or weed control at 70 g/ha [2, 11]: 0 to 29%; pest or weed control at 140 g/ha [2, 11]: 0 to 29%; pest or weed control at 35 g/ha [2, 12]: 0 to 29%; pest or weed control at 70 g/ha [2, 12]: 0 to 29%; pest or weed control at 140 g/ha [2, 12]: 60 to 74%; pest or weed control at 35 g/ha [2, 13]: 0 to 29%; pest or weed control at 70 g/ha [2, 13]: 0 to 29%; pest or weed control at 140 g/ha [2, 13]: 30 to 44%; pest or weed control at 35 g/ha [2, 14]: 0 to 29%; pest or weed control at 70 g/ha [2, 14]: 0 to 29%; pest or weed control at 140 g/ha [2, 14]: 0 to 29% |

Source: patent US20170050957A1, “4-AMINO-6-(HETEROCYCLIC)PICOLINATES AND 6-AMINO-2-(HETEROCYCLIC)PYRIMIDINE-4-CARBOXYLATES AND THEIR USE AS HERBICIDES” (Dow AgroSciences LLC, priority 2013, published 2017)
